Measurements: US20230150920A1, “SALTS AND SOLID FORMS OF 4-BROMO-2,5-DIMETHOXYPHENETHYLAMINE” (priority 2021, published 2023)
Entries after “also recorded” stand apart in the source; their conditions may differ. Like-named read-outs stand apart in the source and are kept apart here.

Columns and labels:
[1] = 93% RH, RT
[2] = Dynamic vapor sorption (DVS) with XRPD of the post-DVS sample; assay type: physicochemical; conditions: for hygroscopicity based on DVS data: 5 to 95% RH; for moisture gain by DVS: adsorption 5 to 95% RH; for behaviour on desorption / form change by XRPD of post-DVS sample: desorption 95 to 5% RH
Procedure, shortened: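 Sample (about 2-25 mg depending on run) held at 25° C. and stepped in 10% RH increments 5→95% RH (adsorption) then 95→5% RH (desorption). Each step advanced at 0.01% weight change (in 5 min for later runs) or after a maximum of 1 h or 90 min; percent weight change reported.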

[3] = for recrystallization of non-crystalline material upon heating (XRPD): heated at ~110° C. for 10 minutes
[4] = Vapor stress, RT
Excerpt: The sample was then centrifuged, while still warm, and the mother liquor was decanted. The isolated solids were air-dried and analyzed by XRPD.

[5] = 25° C., listed as Non-crystalline 2C-B tartrate
[6] = 25° C., listed as non-crystalline 2C-B tartrate

COc1cc(CCN)c(OC)cc1Br.O=C(O)C(O)C(O)C(=O)O [non-crystalline 2C-B Tartrate, 4-bromo-2,5-dimethoxyphenethylamine (2C-B) tartrate]
XRPD result after humidity stress [1]: Tartrate (Form 1) | hygroscopicity based on DVS data [2, 5]: hygroscopic | hygroscopicity based on DVS data [2, 6]: hygroscopic | moisture gain by DVS [2, 5]: 11.7% | moisture gain by DVS [2, 6]: 11.7% | moisture gain by DVS above 55% RH ([2]; above 55% RH): 9.7% | behaviour on desorption / form change by XRPD of post-DVS sample ([2]; listed as Non-crystalline 2C-B tartrate): remained non-crystalline | behaviour on desorption / form change by XRPD of post-DVS sample ([2]; listed as non-crystalline 2C-B tartrate): remains non-crystalline | DVS desorption weight loss, 95-5% RH ([2]; desorption, 95-5% RH, 25° C.): 95-5% RH: 12.3% loss | post-DVS XRPD ([2]; solids after DVS cycle, NC = non-crystalline, br pk = broad peak): NC + br pk (25°) | DVS sorption, weight gain 5-55% RH ([2]; sorption, 5-55% RH, 25° C.): 5-55% RH: 2.0% gain | DVS sorption total gain ([2]; sorption, 5-95% RH, 25° C.): Total gain: 11.7% | DVS sorption, weight gain 55-95% RH ([2]; sorption, 55-95% RH, 25° C.): 55-95% RH: 9.7% gain | XRPD result after heat stress ([3]; 60° C., 9 d): NC + br pk (23°) | XRPD result after heat stress ([3]; 110° C., 10 min.): Tartrate (Form 1) + | recrystallization of non-crystalline material upon heating (XRPD) [3]: recrystallizes to Tartrate (Form 1) upon heating; also recorded: crystallized to 2C-B Tartrate (Form 1) | recrystallization of non-crystalline material upon heating (XRPD) ([3]; listed as non-crystalline tartrate): crystallization to Tartrate (Form 1) was observed by XRPD | XRPD result after vapor stress ([4]; EtOH): Tartrate (Form 1) | XRPD result after vapor stress ([4]; H2O): Tartrate (Form 1) | XRPD result after vapor stress ([4]; acetone): Tartrate (Form 1)
